Experimental data from patent US11491120B2, “Pharmacological prophylactics against stress-induced affective disorders in females” (The Trustees of Columbia University in the City of New York, priority 2017, dated 2022).
Entries after “also recorded” stand apart in the source; their conditions may differ.

Experiments:
female 129S6/SvEv mice [1] = assay: Contextual fear conditioning (CFC), 3-shock, freezing in training and context re-exposure
female 129S6/SvEv mice [2] = assay: Elevated plus maze (EPM); format: in vivo, mouse; conditions: 0.025 mg/kg, 1 week prophylactic drug, learned helplessness stress
Procedure: The EPM was administered as previously described (58), with the exception that videos were scored using ANY-maze behavioral tracking software (Stoelting Co., Wood Dale, Ill.).
We have previously shown that prophylactic (R,S)-ketamine attenuates helpless behavior in male mice (18). To validate these findings in females, female mice were administered saline, (R,S)-ketamine, or (2R,6R)-HNK one week prior to LH training (FIG. 4A). Two weeks later, mice were tested for escape latency and for depressive- and anxiety-like behaviors in the FST and elevated plus maze (EPM). CFC was again administered following these behavioral assays.

[3] = Contextual Fear Conditioning Re-exposure, Dunnett test Sal vs. drug (2.5), 1 week prophylactic drug
[4] = Contextual Fear Conditioning Re-exposure, Dunnett test Sal vs. drug (10), 1 week prophylactic drug
[5] = Contextual Fear Conditioning Training, Dunnett test Sal vs. drug (0.025), 1 week prophylactic drug
[6] = Contextual Fear Conditioning Training, Dunnett test Sal vs. drug (0.075), 1 week prophylactic drug
[7] = Contextual Fear Conditioning Training, Dunnett test Sal vs. drug (0.1), 1 week prophylactic drug
[8] = Contextual Fear Conditioning Training, Dunnett test Sal vs. drug (0.3), 1 week prophylactic drug
[9] = Contextual Fear Conditioning Training, Dunnett test Sal vs. drug (2.5), 1 week prophylactic drug
[10] = Contextual Fear Conditioning Training, Dunnett test Sal vs. drug (10), 1 week prophylactic drug
[11] = Ovariectomized cohort, 1 week prophylactic drug, Contextual Fear Conditioning Re-exposure, FIG. 10B, Sham mice, K (10), (2R,6R)-HNK (0.025)
[12] = Ovariectomized cohort, 1 week prophylactic drug, Contextual Fear Conditioning Re-exposure, FIG. 10C, Sham mice, K (10), (2R,6R)-HNK (0.025)
[13] = Ovariectomized, E2/P4 replacement, 1 week prophylactic drug, Contextual Fear Conditioning Training, FIG. 10D, Vehicle vs E2/P4, same drug, K (10), (2R,6R)-HNK (0.025)
[14] = Sal vs. (2R,6R)-HNK (0.025), Fisher's PLSD, 1 week prophylactic drug, learned helplessness stress, Contextual Fear Conditioning Re-exposure
[15] = Sal vs. (2R,6R)-HNK (0.025), Fisher's PLSD, Stress, antidepressant drug/Contextual Fear Conditioning Training

N[C@@]1(c2ccccc2Cl)CCC[C@@H](O)C1=O [(2R,6R)-HNK, (2R,6R)-hydroxynorketamine]
p, Freezing (min 3) (female 129S6/SvEv mice [1]; [3]): 0.4707
p, Freezing (min 4) (female 129S6/SvEv mice [1]; [3]): 0.3440
p, Freezing (min 5) (female 129S6/SvEv mice [1]; [3]): 0.9997
p, Freezing (min 1-5) (female 129S6/SvEv mice [1]; [4]): 0.9991
p, Freezing (min 2) (female 129S6/SvEv mice [1]; [4]): 0.9994
p, Freezing (min 3) (female 129S6/SvEv mice [1]; [4]): 0.9074
p, Freezing (min 4) (female 129S6/SvEv mice [1]; [4]): 0.9994
p, Freezing (min 5) (female 129S6/SvEv mice [1]; [4]): 0.9003
p, Freezing (min 1-5) (female 129S6/SvEv mice [1]; [5]): 0.7272
p, Freezing (min 4) (female 129S6/SvEv mice [1]; [5]): 0.9640
p, Freezing (min 5) (female 129S6/SvEv mice [1]; [5]): 0.9668
p, Freezing (min 1-5) (female 129S6/SvEv mice [1]; [6]): 0.9917
p, Freezing (min 4) (female 129S6/SvEv mice [1]; [6]): 0.9911
p, Freezing (min 5) (female 129S6/SvEv mice [1]; [6]): 0.9993
p, Freezing (min 1-5) (female 129S6/SvEv mice [1]; [7]): 0.6657
p, Freezing (min 4) (female 129S6/SvEv mice [1]; [7]): >0.9999
p, Freezing (min 5) (female 129S6/SvEv mice [1]; [7]): 0.2588
p, Freezing (min 1-5) (female 129S6/SvEv mice [1]; [8]): 0.9992
p, Freezing (min 4) (female 129S6/SvEv mice [1]; [8]): 0.9477
p, Freezing (min 5) (female 129S6/SvEv mice [1]; [8]): >0.9999
p, Freezing (min 1-5) (female 129S6/SvEv mice [1]; [9]): 0.9993
p, Freezing (min 4) (female 129S6/SvEv mice [1]; [9]): 0.9991
p, Freezing (min 5) (female 129S6/SvEv mice [1]; [9]): 0.9997
p, Freezing (min 1-5) (female 129S6/SvEv mice [1]; [10]): 0.1798
p, Freezing (min 4) (female 129S6/SvEv mice [1]; [10]): 0.4387
p, Freezing (min 5) (female 129S6/SvEv mice [1]; [10]): 0.3423
p, Freezing (min 1-5), Fisher's PLSD, OVX Sal vs OVX drug (female 129S6/SvEv mice [1]; Ovariectomized cohort, 1 week prophylactic drug, Contextual Fear Conditioning Re-exposure, FIG. 10B, OVX mice, K (10), (2R,6R)-HNK (0.025)): 0.2290
* (significance), Freezing (min 1-5), Fisher's PLSD, Sham Sal vs Sham drug (female 129S6/SvEv mice [1]; [11]): * (* p<0.05)
p, Freezing (min 1-5), Fisher's PLSD, Sham Sal vs Sham drug (female 129S6/SvEv mice [1]; [11]): 0.0244
p, Freezing (min 1-5), Fisher's PLSD, Sham drug vs OVX drug (female 129S6/SvEv mice [1]; Ovariectomized cohort, 1 week prophylactic drug, Contextual Fear Conditioning Re-exposure, FIG. 10B, Sham vs OVX, same drug, K (10), (2R,6R)-HNK (0.025)): 0.3764
p, Freezing Average (min 1-5), Fisher's PLSD, OVX Sal vs OVX drug (female 129S6/SvEv mice [1]; Ovariectomized cohort, 1 week prophylactic drug, Contextual Fear Conditioning Re-exposure, FIG. 10C, OVX mice, K (10), (2R,6R)-HNK (0.025)): 0.2290
* (significance), Freezing Average (min 1-5), Fisher's PLSD, Sham Sal vs Sham drug (female 129S6/SvEv mice [1]; [12]): * (* p<0.05)
p, Freezing Average (min 1-5), Fisher's PLSD, Sham Sal vs Sham drug (female 129S6/SvEv mice [1]; [12]): 0.0244
p, Freezing Average (min 1-5), Fisher's PLSD, Sham drug vs OVX drug (female 129S6/SvEv mice [1]; Ovariectomized cohort, 1 week prophylactic drug, Contextual Fear Conditioning Re-exposure, FIG. 10C, Sham vs OVX, same drug, K (10), (2R,6R)-HNK (0.025)): 0.3764
p, Freezing (min 1-5), Fisher's PLSD, E2/P4 Sal vs E2/P4 drug (female 129S6/SvEv mice [1]; Ovariectomized, E2/P4 replacement, 1 week prophylactic drug, Contextual Fear Conditioning Re-exposure, FIG. 10E, E2/P4 mice, K (10), (2R,6R)-HNK (0.025)): 0.4219
p, Freezing (min 1-5), Fisher's PLSD, Vehicle Sal vs Vehicle drug (female 129S6/SvEv mice [1]; Ovariectomized, E2/P4 replacement, 1 week prophylactic drug, Contextual Fear Conditioning Re-exposure, FIG. 10E, Vehicle (hormone) mice, K (10), (2R,6R)-HNK (0.025)): 0.9324
p, Freezing (min 1-5), Fisher's PLSD, Vehicle drug vs E2/P4 drug (female 129S6/SvEv mice [1]; Ovariectomized, E2/P4 replacement, 1 week prophylactic drug, Contextual Fear Conditioning Re-exposure, FIG. 10E, Vehicle vs E2/P4, same drug, K (10), (2R,6R)-HNK (0.025)): 0.5588
p, Freezing Average (min 1-5), Fisher's PLSD, E2/P4 Sal vs E2/P4 drug (female 129S6/SvEv mice [1]; Ovariectomized, E2/P4 replacement, 1 week prophylactic drug, Contextual Fear Conditioning Re-exposure, FIG. 10F, E2/P4 mice, K (10), (2R,6R)-HNK (0.025)): 0.4219
p, Freezing Average (min 1-5), Fisher's PLSD, Vehicle Sal vs Vehicle drug (female 129S6/SvEv mice [1]; Ovariectomized, E2/P4 replacement, 1 week prophylactic drug, Contextual Fear Conditioning Re-exposure, FIG. 10F, Vehicle (hormone) mice, K (10), (2R,6R)-HNK (0.025)): 0.9324
p, Freezing Average (min 1-5), Fisher's PLSD, Vehicle drug vs E2/P4 drug (female 129S6/SvEv mice [1]; Ovariectomized, E2/P4 replacement, 1 week prophylactic drug, Contextual Fear Conditioning Re-exposure, FIG. 10F, Vehicle vs E2/P4, same drug, K (10), (2R,6R)-HNK (0.025)): 0.5588
p, Freezing (min 1-5), Fisher's PLSD, E2/P4 Sal vs E2/P4 drug (female 129S6/SvEv mice [1]; Ovariectomized, E2/P4 replacement, 1 week prophylactic drug, Contextual Fear Conditioning Training, FIG. 10D, E2/P4 mice, K (10), (2R,6R)-HNK (0.025)): 0.7901
p, Freezing (min 1-5), Fisher's PLSD, Vehicle Sal vs Vehicle drug (female 129S6/SvEv mice [1]; Ovariectomized, E2/P4 replacement, 1 week prophylactic drug, Contextual Fear Conditioning Training, FIG. 10D, Vehicle (hormone) mice, K (10), (2R,6R)-HNK (0.025)): 0.6290
* (significance), Freezing (min 1-5), Fisher's PLSD, Vehicle drug vs E2/P4 drug (female 129S6/SvEv mice [1]; [13]): ** (** p<0.01)
p, Freezing (min 1-5), Fisher's PLSD, Vehicle drug vs E2/P4 drug (female 129S6/SvEv mice [1]; [13]): 0.0067
*, Freezing (min 1) (female 129S6/SvEv mice [1]; [14]): * (* p<0.05)
p, Freezing (min 1) (female 129S6/SvEv mice [1]; [14]): 0.0399
p, Freezing (min 5) (female 129S6/SvEv mice [1]; Sal vs. (2R,6R)-HNK (0.025), Fisher's PLSD, 3 day prophylactic drug/Contextual Fear Conditioning Training): 0.9911
p, Freezing (min 1-5) (female 129S6/SvEv mice [1]; [15]): 0.2199
p, Freezing (min 5) (female 129S6/SvEv mice [1]; [15]): 0.0731
p, Freezing Average (min 1-5) (female 129S6/SvEv mice [1]; Sal vs. (2R,6R)-HNK (0.025), t-test, 24 hour prophylactic drug/Contextual Fear Conditioning Re-exposure): 0.2334
Freezing during CFC Training, E2/P4+drug vs vehicle+drug (female 129S6/SvEv mice [1]; ovariectomized mice, hormone replacement): froze significantly more; also recorded: exhibited increased freezing
Freezing during CFC re-exposure vs saline (female 129S6/SvEv mice [1]; ovariectomized mice, vehicle condition): froze at comparable levels
Freezing during re-exposure to the CFC training context vs saline (female 129S6/SvEv mice [1]; single i.p. injection 1 week before 3-shock CFC, all doses, female mice): do not significantly alter freezing; also recorded: did not alter overall freezing
Attenuation of learned fear (female 129S6/SvEv mice [1]; single injection 1 week before stressor, female mice): do not alter learned fear; also recorded: do not attenuate learned fear
P, Sal vs. drug, Fisher's PLSD: Time in Closed Arms Average (min 1-6), Elevated Plus Maze (female 129S6/SvEv mice [2]): 0.3285
P, Sal vs. drug, Fisher's PLSD: Time in Open Arms Average (min 1-6), Elevated Plus Maze (female 129S6/SvEv mice [2]): 0.9855
